In PubChem BioAssay AID248 (DTP/NCI, 2004):
Where “and” joins values, the source holds several entries; their conditions need not be identical. Equal entries are not always repeated. Inconclusive results and toxic doses are left out. No stated cut-off is given here; in the data, active means T/C of 150% or more; inactive means T/C below 125%.

Test system: L1210 leukemia ip in BDF1 mice, survival T/C
Experiment: NCI In Vivo Anticancer Drug Screen. Data for tumor model L1210 Leukemia (intraperitoneal) in B6D2F1 (BDF1) mice
Conditions: endpoint: mean survival time, higher = longer survival
Method in brief: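 Each compound was tested against a transplantable tumor grown in mice. The endpoint was survival, with treated animals benchmarked against vehicle controls as a simple ratio.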

[1] = dose: 50.0 mg/kg/injection, schedule: Q01DX009 (ip), vehicle: Klucel (hydroxypropylcellulose) (HPC)
[2] = dose: 100.0 mg/kg/injection, schedule: Q01DX009 (ip), vehicle: Klucel (hydroxypropylcellulose) (HPC)
[3] = dose: 100.0 mg/kg/injection, schedule: Q04DX002 (ip), vehicle: Klucel (hydroxypropylcellulose) (HPC)
[4] = dose: 200.0 mg/kg/injection, schedule: Q01DX009 (ip), vehicle: Klucel (hydroxypropylcellulose) (HPC)
[5] = dose: 200.0 mg/kg/injection, schedule: Q04DX002 (ip), vehicle: Klucel (hydroxypropylcellulose) (HPC)
[6] = dose: 100.0 mg/kg/injection, schedule: Q01DX001 (ip), vehicle: Klucel (hydroxypropylcellulose) (HPC)
[7] = dose: 200.0 mg/kg/injection, schedule: Q01DX001 (ip), vehicle: Klucel (hydroxypropylcellulose) (HPC)
[8] = dose: 400.0 mg/kg/injection, schedule: Q01DX001 (ip), vehicle: Klucel (hydroxypropylcellulose) (HPC)
[9] = dose: 50.0 mg/kg/injection, schedule: Q01DX001 (ip), vehicle: saline
[10] = dose: 100.0 mg/kg/injection, schedule: Q01DX001 (ip), vehicle: carboxymethylcellulose (CMC)
[11] = dose: 200.0 mg/kg/injection, schedule: Q01DX001 (ip), vehicle: carboxymethylcellulose (CMC)
[12] = dose: 400.0 mg/kg/injection, schedule: Q01DX001 (ip), vehicle: carboxymethylcellulose (CMC)
[13] = dose: 100.0 mg/kg/injection, schedule: Q01DX Z (ip), vehicle: methylcellulose (MC)
[14] = dose: 200.0 mg/kg/injection, schedule: Q01DX Z (ip), vehicle: methylcellulose (MC)

Measured: T/C

O=C1C(=Cc2ccc([N+](=O)[O-])cc2)C(=O)c2ccccc21
inactive: dose: 12.5 mg/kg/injection, schedule: Q01DX009 (ip), vehicle: Klucel (hydroxypropylcellulose) (HPC) 93 % of control | dose: 12.5 mg/kg/injection, schedule: Q04DX003 (ip), vehicle: Klucel (hydroxypropylcellulose) (HPC) 97 % of control | dose: 25.0 mg/kg/injection, schedule: Q01DX009 (ip), vehicle: Klucel (hydroxypropylcellulose) (HPC) 88 % of control | dose: 25.0 mg/kg/injection, schedule: Q04DX003 (ip), vehicle: Klucel (hydroxypropylcellulose) (HPC) 90 % of control | [1] 98 % of control | dose: 50.0 mg/kg/injection, schedule: Q04DX003 (ip), vehicle: Klucel (hydroxypropylcellulose) (HPC) 93 % of control

C[N+](C)(C)c1ccc(F)c([N+](=O)[O-])c1
inactive: dose: 50.0 mg/kg/injection, schedule: Q01DX005 (ip), vehicle: Klucel (hydroxypropylcellulose) (HPC) 95 % of control | [1] 96 % of control | dose: 100.0 mg/kg/injection, schedule: Q01DX005 (ip), vehicle: Klucel (hydroxypropylcellulose) (HPC) 98 % of control | [2] 96 % of control | [3] 90 % of control | dose: 200.0 mg/kg/injection, schedule: Q01DX005 (ip), vehicle: Klucel (hydroxypropylcellulose) (HPC) 103 % of control | [4] 96 % of control | [5] 96 % of control

CCOC(OCC)C(=O)C(C#N)c1ccc(C#N)cc1 (configuration not stated)
inactive: dose: 3.12 mg/kg/injection, schedule: Q01DX009 (ip), vehicle: DMSO 90 % of control | dose: 6.25 mg/kg/injection, schedule: Q01DX009 (ip), vehicle: DMSO 88 % of control | dose: 12.5 mg/kg/injection, schedule: Q01DX009 (ip), vehicle: DMSO 92 % of control and 88 % of control

O=C1C=C(N2CCOCC2)c2cccc3cccc1c23
inactive: dose: 50.0 mg/kg/injection, schedule: Q01DX001 (ip), vehicle: Klucel (hydroxypropylcellulose) (HPC) 106 % of control | [6] 104 % of control | [2] 94 % of control | [7] 98 % of control | [4] 96 % of control

CC1C=CC(C(=O)Nc2ccc(Cl)c(Cl)c2)N1C (configuration not stated)
inactive: dose: 50.0 mg/kg/injection, schedule: Q01DX009 (ip), vehicle: saline with Tween-80 94 % of control | dose: 100.0 mg/kg/injection, schedule: Q01DX009 (ip), vehicle: saline with Tween-80 91 % of control | dose: 200.0 mg/kg/injection, schedule: Q01DX009 (ip), vehicle: saline with Tween-80 93 % of control

CCOC(=O)C(=O)Nc1onc(C)c1[N+](=O)[O-]
inactive: [6] 91 % of control | [2] 93 % of control | [7] 97 % of control | [4] 93 % of control | [8] 100 % of control

CN=NC(C)(C)OC(C)=O
inactive: dose: 12.5 mg/kg/injection, schedule: Q01DX001 (ip), vehicle: saline 97 % of control | dose: 12.5 mg/kg/injection, schedule: Q01DX009 (ip), vehicle: saline 101 % of control | dose: 12.5 mg/kg/injection, schedule: Q04DX003 (ip), vehicle: saline 107 % of control | dose: 25.0 mg/kg/injection, schedule: Q01DX001 (ip), vehicle: saline 96 % of control | dose: 25.0 mg/kg/injection, schedule: Q01DX009 (ip), vehicle: saline 108 % of control | dose: 25.0 mg/kg/injection, schedule: Q04DX003 (ip), vehicle: saline 107 % of control | [9] 107 % of control | dose: 50.0 mg/kg/injection, schedule: Q04DX003 (ip), vehicle: saline 98 % of control

CC1(C)N=C(N)N=C(N)N1NC(=O)c1ccc(F)cc1
inactive: dose: 100.0 mg/kg/injection, schedule: Q01DX009 (ip), vehicle: saline 102 % of control | dose: 200.0 mg/kg/injection, schedule: Q01DX009 (ip), vehicle: saline 96 % of control

CCOC(=O)CC(C(=O)O)=C(c1ccccc1)c1ccccc1
inactive: dose: 50.0 mg/kg/injection, schedule: Q01DX001 (ip), vehicle: carboxymethylcellulose (CMC) 98 % of control | [10] 98 % of control | [11] 93 % of control | [12] 93 % of control

CS(=O)(=O)Oc1c(Cl)cc(Cl)c2cccnc12
inactive: [10] 102 % of control | [11] 102 % of control | [12] 111 % of control

CC1CC(=O)NC(=O)N1Cc1ccccc1 (configuration not stated)
inactive: [13] 91 % of control | [14] 92 % of control

COc1ccc(C(N)=O)c(C)c1OC
inactive: [9] 98 % of control | dose: 100.0 mg/kg/injection, schedule: Q01DX001 (ip), vehicle: saline 95 % of control | dose: 200.0 mg/kg/injection, schedule: Q01DX001 (ip), vehicle: saline 95 % of control | dose: 400.0 mg/kg/injection, schedule: Q01DX001 (ip), vehicle: saline 95 % of control

CC1=CCCCC1Br (configuration not stated)
inactive: dose: 100.0 mg/kg/injection, schedule: Q04DX003 (ip), vehicle: saline with Tween-80 96 % of control | dose: 200.0 mg/kg/injection, schedule: Q04DX003 (ip), vehicle: saline with Tween-80 101 % of control | dose: 400.0 mg/kg/injection, schedule: Q04DX003 (ip), vehicle: saline with Tween-80 98 % of control

NC(N)=NC(CC(=O)O)C(=O)O (configuration not stated)
inactive: [13] 92 % of control | [14] 92 % of control

CCCCC(=O)N/N=C/c1cccc(OC)c1OC
inactive: [10] 92 % of control | [11] 92 % of control | [12] 101 % of control

Cn1nc(N)c2cc3c(=O)[nH]cnc3nc21
inactive: [6] 96 % of control | [7] 104 % of control | [8] 101 % of control

O=Cc1c(Cl)n(-c2ccccc2)c2ccccc12
inactive: dose: 50.0 mg/kg/injection, schedule: Q04DX002 (ip), vehicle: Klucel (hydroxypropylcellulose) (HPC) 97 % of control | [3] 97 % of control | [5] 87 % of control
